# Measurements: US9701709B2 (REATA PHARMACEUTICALS, INC., priority 2012, dated 2017)
# Like-named read-outs stand apart in the source and are kept apart here.
# How the values were obtained:
# pulmonary function = test: Pulmonary evaluation in rats; type: in vivo, rat; conditions: single oral dose up to and including 30 mg/kg
# Procedure: One additional group of 8 animals/sex served as the control and received vehicle (sesame oil).
# Observations for mortality, morbidity, injury, and availability of food and water were conducted twice daily for all animals. Clinical observations were conducted prior to dosing, approximately 4 h post-dose, and following completion of the 8-h pulmonary monitoring period. […] Pulmonary function (respiratory rate, tidal volume, and minute volume) was monitored for at least 1 h prior to dosing to establish a baseline and for at least 8 h post-dose.
# [1] = test system: NQO1 and HMOX1 protein in BV2 cells; test: Western blot of Nrf2 target proteins in BV2; type: cell-based, mouse; conditions: BV2, 24 h
# Procedure: (§1) SH-SY5Y cells were plated in 6-well plates at a density of 4×10^5 cells per well. BV-2 cells were plated in 6-well plates at a density of 2.5×10^4 cells per well. […] Following treatment, cells were washed twice with cold PBS and harvested in lysis buffer. Cells were sonicated and debris was cleared by centrifugation (10 min @ 18,000 rcf, Beckman Coulter, microfuge 18 centrifuge). Total protein in supernatant was quantified using Bio-Rad protein reagent with BSA as a standard. Equal amounts of total cellular protein were separated on SDS-PAGE, and proteins were transferred to nitrocellulose membrane. Membranes were blocked for 1 hour in TBST (1×TBS with 0.1% Tween-20) containing 5% milk, washed 3 times with TBST, and incubated with primary antibodies overnight at 4° C. NQO1 antibody was from Abcam (#AB2346); HMOX1 (HO-1) antibody was from Santa Cruz (#sc-10789); actin antibody was from Millipore (#MAB 1501). After washing with TBST, secondary antibodies were added in TBST+5% milk for 1 h at room temperature. AffiniPure goat anti-rabbit or anti-mouse IgG secondary antibodies were from Jackson ImmunoResearch (catalog #111-035-144 and #115-035-146, respectively). Membranes were washed in TBST, developed using ECL, and exposed to X-ray film. […] HMOX1 protein was not detected in untreated or RTA 408-treated SH-SY5Y cells. […] The same amount of 63170 (54.6 nM) was required.
# [2] = Metabolism in rodent (mouse, rat) liver microsomes; type: in vitro ADME, mice, rats; conditions: 60-min incubation, NADPH and UGT
# [3] = Oral pharmacokinetics in mice; type: in vivo, mouse; conditions: oral suspension, 10 to 100 mg/kg
# Procedure: (§2) Measurements were performed on TQD and QToF mass spectrometers (Waters).
# (§3) Following oral administration of a suspension formulation at doses of 10 to 100 mg/kg, maximal concentrations were observed within 1 to 2 h in mice, and within 1 to 24 h in rats and monkeys.
# [4] = test system: LNCaP prostate cancer cell line; test: Cytotoxicity in combination with 5-fluorouracil in LNCaP; type: cell-based; conditions: RTA 408 0.125 to 0.5 μM
# Description: (§4) This evidence supports the concept that RTA 408 could act synergistically with cancer therapeutic agents and may be used in some embodiments to provide greater efficacy in treating cancer patients.
# [5] = test system: fractionated radiation dermatitis; test: Fractionated radiation dermatitis in Balb/c mice; type: in vivo, mouse; conditions: for % Days ≧ 2 (dermatitis score) / % Days ≧ 3 (dermatitis score): 6 × 10 Gy
# Procedure: The mice were irradiated on days 0-2 and 5-7 with six 10-Gy doses […]. Clinical dermatitis scores for the mice were evaluated blindly every two days from day 4 until the end of the study. […] Study and treatment parameters can be found in Table 6.
# By analyzing the average clinical scores that were shown in FIG. 46, an area under the curve (AUC) analysis was performed, which yielded the severity of the dermatitis relative to how long the dermatitis persisted.
# [6] = Distribution into mouse tissues after PO QD×3; type: in vivo; conditions: mice PO QD×3 25 mg/kg, 6 h after last dose, semi-quantitative
# Procedure: Semi-quantitative analysis of drug content was performed.
# [7] = test system: NQO1 and HMOX1 protein in SH-SY5Y cells; test: Western blot of Nrf2 target proteins in SH-SY5Y; type: cell-based, human; conditions: 24 h
# Procedure: as §1
# [8] = Plasma protein binding (ultracentrifugation), rat
# [9] = test system: lactate in C2Cl2 muscle cells; test: Lactate levels in C2Cl2 myotubes; type: cell-based, rodent; conditions: differentiated C2Cl2 myotubes; 1 μM or 2 μM, 3 h
# Procedure: Buffer was removed and saved for measurement of extracellular lactate levels. Cell debris was pelleted by centrifugation (10 min at 14,000 rpm) prior to measurement of lactate. To measure intracellular lactate, cells were suspended in 0.1% Triton X-100 in PBS and lysed by shearing with a 25 gauge needle. Cell lysate was centrifuged (10 min at 14,000 rpm, 4° C.) and lactate was measured in the supernatant. Intracellular and extracellular lactate was measured using the Lactate Assay Kit (BioVision, Catalog # K607-100).
# [10] = test system: DU-145 prostate cancer cell line; test: Cytotoxicity in combination with docetaxel in DU-145; type: cell-based; conditions: RTA 408 0.125 to 0.75 μM
# Description: as §4
# [11] = Oral pharmacokinetics, statements pooled over mice, rats, and monkeys; type: in vivo; conditions: mouse, rat, monkey, plasma; after oral administration; read-out: Apparent terminal half-life
# Procedure: as §2, §3
# [12] = test system: rat GSTA2 ARE (Nrf2) in AREc32 reporter cell line; test: GSTA2-ARE luciferase reporter in AREc32; conditions: 15.6 nM, 18 h
# [13] = test system: radiation-induced oral mucositis; test: Radiation-induced oral mucositis in hamsters
smiles,measurement,setting,value
"CC1(C)CC[C@]2(NC(=O)C(C)(F)F)CC[C@]3(C)[C@H](C(=O)C=C4[C@@]5(C)C=C(C#N)C(=O)C(C)(C)[C@@H]5CC[C@]43C)[C@@H]2C1 [RTA 408, N-((4aS,6aR,6bS,8aR,12aS,14aR,14bS)-11-cyano-2,2,6a,6b,9,9,12a-heptamethyl-10,14-dioxo-1,2,3,4,4a,5,6,6a,6b,7,8,8a,9,10,12a,14,14a,14b-octadecahydropicen-4a-yl)-2,2-difluoropropanamide]","Pulmonary endpoints (respiratory rate, tidal volume, minute volume)",pulmonary function,did not produce any adverse effects
same,NQO1 and HMOX1 protein levels,[1],increased NQO1 and HMOX1 protein levels at concentrations up to 125 nM
same,Parent molecule remaining,[2],> 65%
same,Time of maximal concentrations,[3],1 to 2 h
same,Cytotoxicity of 5-fluorouracil in combination,[4],statistically significant increase in cytotoxicity when combined with RTA 408
same,Average clinical dermatitis score,[5]; 0.1% to 1% topical formulations,statistically significant improvement in the scores
same,% Days ≧ 2 (dermatitis score),[5]; topical 0.01%,54%
same,% Days ≧ 3 (dermatitis score),[5]; topical 0.01%,29%
same,% Days ≧ 2 (dermatitis score),[5]; topical 0.1%,40%
same,% Days ≧ 3 (dermatitis score),[5]; topical 0.1%,13%
same,% Days ≧ 3 (dermatitis score),"[5]; topical 1%, vehicle 33%",6%
same,% Days ≧ 2 (dermatitis score),"[5]; topical 1%, vehicle 60%",21%
same,concentration at 6 h,"[6]; brain, read-out: Drug content, Brain",1080 nM
same,concentration at 6 h,"[6]; kidney, read-out: Drug content, Kidney",1600 nM
same,concentration at 6 h,"[6]; liver, read-out: Drug content, Liver",985 nM
same,concentration at 6 h,"[6]; lung, read-out: Drug content, Lung",533 nM
same,concentration at 6 h,"[6]; plasma, read-out: Drug content, Plasma",51 nM
same,concentration at 6 h,"[6]; whole blood, read-out: Drug content, Whole Blood",679 nM
same,NQO1 protein levels,[7],increased NQO1 protein levels in SH-SY5Y cells in a dose-dependent manner
same,fraction unbound,[8],0.05
same,Intracellular and extracellular lactate levels,[9],significantly increased intracellular and extracellular lactate levels in a dose-dependent manner
same,Cytotoxicity of docetaxel in combination,[10],amplified the cytotoxicity of the chemotherapeutic agent in a statistically significant fashion
same,half-life,[11],6 to 26 h
same,"Induction of luciferase activity, GSTA2-ARE reporter",[12],~2 fold
same,Reduction in ulceration,[13]; 30 mg/kg and 100 mg/kg BID×20,≤ 36%
same,Euthanasia due to weight loss in excess of 20%,[13]; 100 mg/kg,two out of eight hamsters in the 100 mg/kg dose group were euthanized on Day 2
same,Duration of ulcerative mucositis,[13]; 30 and 100 mg/kg twice daily,significant reduction in the duration of ulcerative mucositis
